Key:
[1] = Particle size D90 by laser diffraction before and after Gamma irradiation; format: physicochemical
Experimental: (§1) The solid-state characterization of the spray dried amorphous ivermectin solid dispersions of Examples 1-3 prepared by the traditional spray drying process were evaluated by Scanning Electronic Microscopy (SEM) (Phenom ProX SEM), Differential Scanning calorimetry (DSC) (TA Instruments), Laser diffraction (Sympatec HELOS/RODOS, Germany) employing the rotary feeder and R1 lens, X-Ray Powder Diffraction (Pan Analytical), Raman Spectroscopy (Witec) and High Performance Liquid Chromatography (Waters). FIG. 1 is a scanning electron microscopic picture of the amorphous solid dispersion of Example 1 (ivermectin and PVP-VA-64). FIG. 2 is a scanning electron microscopic image of the amorphous solid dispersion of Example 2 (ivermectin and PVP K-30). FIG. 3 is a scanning electron microscopic picture of the amorphous solid dispersion of Example 3 (ivermectin and HPMC E4M). FIGS. 1-3 are at a magnification of 6000×. FIGS. 4-6 are thermograms of the ASD of Examples 1-3 obtained by differential scanning calorimetry. FIGS. 7-9 are diffractograms of the ASD of Examples 1-3. […] FIGS. 10 and 11 are Raman spectrums for ivermectin, the polymer PVP VA-64 and mixtures of the two (FIG. 10) and ivermectin, the polymer PVP K-30 and mixtures of the two (FIG. 11). […] FIG. 10 includes ratios of ivermectin to PVP VA-64 at ratios of 1:1 and 1:2 and FIG. 11 includes ratios of ivermectin to PVP K-30 at ratios of 1:1, 1:3, and 2:3.
(§2) Table 4 provides a summary of the characterizations (HPLC, XRPD and particle size) of ivermectin and of the amorphous solid dispersion of Example 1 (PVP-VA 64), Example 2 (PVP K-30) and Example 3 (HPMC E4M) prior to irradiation and after irradiation. Preliminary trials of sterilization by gamma irradiation were successfully completed in the solid material of ivermectin alone and ASDs. The amorphous form of the ASDs was not affected by gamma irradiation.

[2] = XRPD polymorphic form before and after Gamma irradiation; format: physicochemical
Experimental: as §1
The inventors have also determined that use of the polymer in the amorphous solid dispersion of ivermectin protects the ivermectin from degradation that occurs during Gamma irradiation, heat sterilization or e-beam sterilization. Ophthalmic formulations must be sterilized and Gamma irradiation, heat sterilization or e-beam sterilization are suitable methods for sterilization because other methods, such as filtration, are not suitable for a suspension formulation. […] The ASDs were analyzed by XRPD and HPLC to determine if the Gamma irradiation changed the ivermectin polymorphic form and degradation respectively. […]

demodex = details: oral ivermectin, 19 subjects, cited from earlier work
[3] = tested on: TNF-α, IL-1, and IL-6 (lipopolysaccharide (LPS)-induced cytokines); details: through NF-κB; cited from earlier work
[4] = HPLC assay of ivermectin before and after Gamma irradiation; format: physicochemical
Excerpt: The inventors have also determined that use of the polymer in the amorphous solid dispersion of ivermectin protects the ivermectin from degradation that occurs during Gamma irradiation, heat sterilization or e-beam sterilization. Ophthalmic formulations must be sterilized and Gamma irradiation, heat sterilization or e-beam sterilization are suitable methods for sterilization because other methods, such as filtration, are not suitable for a suspension formulation. The amorphous solid dispersions for Examples 1-3 were tested to determine the extent that the polymer protects the ivermectin during Gamma irradiation. For preliminary tests, the amorphous ivermectin solid dispersions were sterilized by Gamma irradiation at 25 kGy for 22 hours in a Precisa 22 equipment. The ASDs were analyzed by XRPD and HPLC to determine if the Gamma irradiation changed the ivermectin polymorphic form and degradation respectively.
The assay of the ivermectin on the amorphous solid dispersion was performed before, 1 week and 1 month after the application of Gamma irradiation. Preliminary trials of sterilization by gamma irradiation were successfully completed in the solid material of ivermectin alone and ASDs.
as §2

[5] = Visual solubility in artificial sebum; format: physicochemical; details: 24 h of mixing with a magnetic stirrer at room temperature, same amount of ivermectin
Experimental: Some polymers have a capacity to improve the solubility of the ivermectin in the local region of application.
The sebum with the amorphous ivermectin dispersions remains clear (solubilized) after 24 h of mixing with a magnetic stirrer at room temperature, and without polymers the sebum continued opaque (ivermectin in suspension—not solubilized) after the addiction of the both forms of ivermectin (crystalline or amorphous).

Row | Compound | D90 After irradiation (T = 1 week) ([1]; 1 week after Gamma irradiation) | D90 After irradiation (2 M) ([1]; after Gamma irradiation, cells marked (2 M) in the T = 1 month column) | D90 Before irradiation ([1]; before irradiation) | XRPD After irradiation (T = 1 month) ([2]; 1 month after Gamma irradiation) | XRPD After irradiation (T = 1 week) ([2]; 1 week after Gamma irradiation) | XRPD Before irradiation ([2]; before irradiation) | Eradication of the demodex (demodex; by month 3 of treatment) | Improvement in signs of ocular inflammation (demodex) | Symptomatic improvement (demodex) | Change in TNF-α, IL-1, and IL-6 [3] | % API (After: 1 month) ([4]; HPLC, 1 month after Gamma irradiation at 25 kGy for 22 hours) | % API (After: 1 week) ([4]; HPLC, 1 week after Gamma irradiation at 25 kGy for 22 hours) | % API (Before) ([4]; HPLC, before Gamma irradiation) | HPLC (Assay IVM) After irradiation (T = 1 month) ([4]; Table 4, 1 month after Gamma irradiation) | HPLC (Assay IVM) After irradiation (T = 1 week) ([4]; Table 4, 1 week after Gamma irradiation) | HPLC (Assay IVM) Before irradiation ([4]; Table 4, before irradiation) | % API degraded ([4]; before vs 1 month after Gamma irradiation) | Solubility (visual inspection) [5]
1 | CC[C@H](C)[C@H]1O[C@]2(CC[C@@H]1C)C[C@@H]1C[C@@H](C/C=C(\C)[C@@H](O[C@H]3C[C@H](OC)[C@@H](O[C@H]4C[C@H](OC)[C@@H](O)[C@H](C)O4)[C@H](C)O3)[C@@H](C)/C=C/C=C3\CO[C@@H]4[C@H](O)C(C)=C[C@@H](C(=O)O1)[C@]34O)O2 [IVM, ivermectin] | 2.53 μm | 2.41 (2 M) μm | 2.66 μm | Amorphous | Amorphous | Amorphous | All subjects had eradication of the demodex | all subjects had an improvement | All but two subjects improved symptomatically | decrease | 84.3% | 86.9% | 95.2% | 84.26% | 86.9% | 95.2% | 10.9% | 
2 | ivermectin [Crystalline ivermectin] |  |  |  |  |  |  |  |  |  |  |  |  |  |  |  |  |  | opaque

— US20230165798A1, “MACROCYCLIC LACTONE FORMULATIONS, METHODS OF THEIR PREPARATION AND USE OF THE FORMULATIONS IN TREATING PATHOLOGIES SECONDARY TO OPHTHALMIC PARASITES” (Hovione Scientia, priority 2018, published 2023)
